Test results reported in patent US20130225627A1, “DEXTROMETHORPHAN ANTITUSSIVE COMPOSITIONS” (Trinity Laboratories, Inc., priority 2010, published 2013).
Where a name gives a salt, the structure may show the parent alone. Read-outs that look alike come from different tables or passages of the source.

Key:
[1] = rats, cited from earlier work
rats [2] = test system: rats
rats [3] = conditions: cited from earlier work
females = conditions: cited from earlier work; for mean plasma bromide concentration at the end of the treatment: three menstrual cycles
[4] = Ames test; cited from earlier work
[5] = in vivo; cited from earlier work
[6] = after oral ingestion; cited from earlier work
[7] = cited from earlier work
[8] = Solubility of dextromethorphan hydrochloride in water; conditions: at the pH of the compositions of the present invention
Text: However, the compositions of the invention may contain sufficient levels of one or more cosolvents. Preferred cosolvents for this purpose include ethanol, propylene glycol, polyethylene glycol, glycerin, and sorbitol; more preferred cosolvents include ethanol, propylene glycol and glycerin.

thyroid gland = conditions: rats, diets containing 4800 or 19200 ppm NaBr; as soon as 3 days, constant during 12 weeks; cited from earlier work
rats [9] = conditions: cited from earlier work; remark: listed apart in the source
healthy volunteers = conditions: cited from earlier work

**Q.** Which half-life ([1]; chloride-free diet) does the source give for Br [Bromide] here?
**A.** 25 days

**Q.** What about the half-life ([1]; normal) of the same compound?
**A.** three

**Q.** And the “No Observable Adverse Effect Level (NOAEL), effects on the thyroid” value (rats [2]; equivalent daily dose)?
**A.** 12 mg bromide/kg/day

**Q.** And the “No Observable Adverse Effect Level (NOAEL), effects on the thyroid” value (rats [2]; expressed as bromide)?
**A.** 240 ppm

**Q.** What about the “central nervous system effects” value (rats [3]; short-term toxicity studies, higher doses) of the same compound?
**A.** motor incoordination of the hind legs and inhibition of grooming

**Q.** And the “mean plasma bromide concentration at the end of the treatment” value (females; 4 mg Br/kg/day)?
**A.** 3.22 mmol/L

**Q.** What about the “mean plasma bromide concentration at the end of the treatment” value (females; 9 mg Br/kg/day) of the same compound?
**A.** 7.99 mmol/L

**Q.** And the “quantitative analysis of the electroencephalogram (EEG)” value (females; 9 mg Br/kg/day)?
**A.** only a marginal effect

**Q.** What about the “clinical observation: effects on the thyroid or on the central nervous system” value (females; 4 and 9 mg Br/kg/day) of the same compound?
**A.** did not show effects

**Q.** What about the “serum thyroxine, free thyroxine, triiodothyronine, thyrotropin and thyroxine-binding globulin” value (females; 4 and 9 mg Br/kg/day) of the same compound?
**A.** In none of the three groups were significant changes observed

**Q.** What about the mutagenicity [4] of the same compound?
**A.** not mutagenic

**Q.** And the half life [5]?
**A.** 9 to 12 days

**Q.** What about the “absorption in the gastrointestinal tract” value [6] of the same compound?
**A.** rapidly and completely absorbed

**Q.** With COc1ccc2c(c1)[C@]13CCCC[C@@H]1[C@H](C2)N(C)CC3 [Dextromethorphan Hydrobromide] as the compound, how does the solubility ([7]; at 20° C.) read?
**A.** about 1.5 weight percent

**Q.** What about the solubility ([7]; at 85° C.) of the same compound?
**A.** about 25 wt. %

**Q.** With COc1ccc2c(c1)[C@]13CCCC[C@@H]1[C@H](C2)N(C)CC3 [Dextromethorphan hydrochloride] as the compound, how does the solubility in water [8] read?
**A.** highly soluble

**Q.** Which results are given for [Br-].[Na+] [sodium bromide]?
**A.** No Observable Adverse Effect Level (NOAEL), effects on the thyroid (rats [3]; expressed as sodium bromide): 300 ppm; levels of thyroxine, growth hormone, testosterone and corticosterone (rats [3]; special studies): decreased levels; thyroid-stimulating hormone (TSH) and insulin (rats [3]; special studies): increased; thyroxine concentrations (thyroid gland): significantly decreased; effects on reproduction (rats [9]; 1200 ppm): no effects on reproduction were observed; fertility and viability of the offspring (rats [9]; 4800 ppm): reduced; fertility (rats [9]; 19200 ppm sodium bromide, reversible): complete infertility; neurophysiological data (EEG and visual evoked response) (healthy volunteers; 9 mg Br/kg/day, within normal limits): shifts in the power of various spectral bands and a shift in mean frequency; medical history, physical examination, haematology, clinical chemistry and urine analyses (healthy volunteers; 4 or 9 mg Br/kg/day, start versus end of study): Except for incidental nausea, no changes were observed; serum free thyroxine, thyroxine-binding globulin, cortisol, oestradiol, progesterone, testosterone, thyrotropin, prolactin, LH, FSH (healthy volunteers; 4 or 9 mg Br/kg/day): No changes were observed; mean plasma bromide concentration at the end of treatment (healthy volunteers; females, 4 mg Br/kg/day oral, three full cycles): 3.05 mmol/L; mean plasma bromide concentration at the end of treatment (healthy volunteers; females, 9 mg Br/kg/day oral, three full cycles): 4.93 mmol/L; serum thyroxine and triiodothyronine at the end of the study compared to pre-administration values (healthy volunteers; females, 9 mg Br/kg/day, all concentrations within normal limits): significant increase; mean plasma bromide concentration at the end of treatment (healthy volunteers; males, 4 mg Br/kg/day oral, 12 weeks): 2.14 millimoles/liter; mean plasma bromide concentration at the end of treatment (healthy volunteers; males, 9 mg Br/kg/day oral, 12 weeks): 4.30 millimoles/liter
